Assay [1] is described as follows: (§1) Maximum tolerated dose (MTD) of the compound. The format is functional. The settings on record: herpes simplex virus.
Assay [2] relates to Staphylococcus aureus. The assay can be described thus: Compound was tested for antimicrobial activity against Staphylococcus aureus 285.
The test system of assay [3] is Staphylococcus aureus. Kind of assay: Compound was tested for antimicrobial activity against Staphylococcus aureus 503.
Assay [4] has as its system Streptococcus pyogenes. The assay can be described thus: Compound was tested for antimicrobial activity against Streptococcus pyogenes 77A. Type of assay: functional, […] pyogenes.
Assay [5] deals with Staphylococcus aureus. Kind of assay: Compound was tested for antimicrobial activity against Staphylococcus aureus SG511.
Assay [6] relates to Human alphaherpesvirus 1. The assay can be described thus: Compound was tested for antimicrobial activity against HSV type 1. The format is functional.
For assay [7], the system named is Streptococcus pyogenes. The assay can be described thus: Compound was tested for antimicrobial activity against […] pyogenes 308 A. Type of assay: functional.
Assay [8] has as its system Human alphaherpesvirus 2. The assay can be described thus: Compound was tested for antimicrobial activity against HSV type 2. The format is functional.
Assay [9] concerns herpes simplex virus. The assay is described as §1. Type of assay: functional.

Values after ≈ are worked out from the molar mass of the structure shown.

On to `CO[C@@H]1C[C@@H](C[C@H]2CC[C@H](C)[C@H]([C@@H](C)C(=O)O)O2)OC2(O[C@](C)([C@H]3CC[C@@](C)([C@@H]4O[C@@H]([C@H]5O[C@](COC(=O)C(C)C)(OC)[C@H](C)C[C@@H]5C)C[C@@H]4C)O3)C[C@H]2C)[C@@H]1C` (stereo partly specified), for which the MTD in [1] was greater than 400 µg/mL. In addition, the MIC in assay [2] was 100 µg/mL (≈ 124 µM); in assay [3], 25 µg/mL (≈ 30.9 µM); in assay [4], greater than 100 µg/mL; in [5], greater than 100 µg/mL; in assay [6], greater than 400 µg/mL; in assay [7], 25 µg/mL (≈ 30.9 µM). Also, the MIC in assay [8] was greater than 400 µg/mL.
In assay [1], `CO[C@@H]1C[C@@H](C[C@H]2CC[C@H](C)[C@H]([C@@H](C)C(=O)O)O2)OC2(O[C@](C)([C@H]3CC[C@@](C)([C@@H]4O[C@@H]([C@H]5O[C@@](O)(CO)[C@H](C)C[C@@H]5C)C[C@@H]4C)O3)C[C@H]2C)[C@@H]1C` (stereo partly specified) came in with an MTD of 1.4 µg/mL. The MIC was 0.098 µg/mL (≈ 0.135 µM) in assay [2]; 0.098 µg/mL (≈ 0.135 µM) in assay [3]; 0.013 µg/mL (≈ 0.0179 µM) in [4]; 0.098 µg/mL (≈ 0.135 µM) in assay [5]; less than 0.02 µg/mL in [6]; 0.025 µg/mL (≈ 0.0345 µM) in assay [7]. For the same molecule, the MIC in assay [8] amounted to 0.05 µg/mL (≈ 0.069 µM).
Turning to `CO[C@@H]1C[C@@H](C[C@H]2CC[C@H](C)[C@H]([C@@H](C)CO)O2)OC2(O[C@](C)([C@H]3CC[C@@](C)([C@@H]4O[C@@H]([C@H]5O[C@](COC(=O)C(C)C)(OC)[C@H](C)C[C@@H]5C)C[C@@H]4C)O3)C[C@H]2C)[C@@H]1C` (stereo partly specified), the MTD in assay [1] was greater than 400 µg/mL. The MIC in [2] was greater than 100 µg/mL; in assay [3], greater than 100 µg/mL; in assay [4], greater than 100 µg/mL; in assay [5], greater than 100 µg/mL; in [6] it was greater than 400 µg/mL; in assay [7], greater than 100 µg/mL. The same molecule gave an MIC in assay [8] greater than 400 µg/mL.
Molecule `CO[C@@H]1C[C@@H](C[C@H]2CC[C@H](C)[C@H]([C@@H](C)COC(=O)C(C)C)O2)OC2(O[C@](C)([C@H]3CC[C@@](C)([C@@H]4O[C@@H]([C@H]5O[C@@](O)(CO)[C@H](C)C[C@@H]5C)C[C@@H]4C)O3)C[C@H]2C)[C@@H]1C` (stereo partly specified) returned an MTD in assay [1] greater than 400 µg/mL. The MIC in assay [2] was greater than 100 µg/mL; in assay [3], greater than 100 µg/mL; in assay [4], greater than 100 µg/mL; in assay [5], greater than 100 µg/mL; in [6], greater than 400 µg/mL; in assay [7] it was greater than 100 µg/mL. Also, in assay [8], the MIC is greater than 400 µg/mL.
For the molecule `CO[C@@H]1C[C@@H](C[C@H]2CC[C@H](C)[C@H]([C@@H](C)C(=O)O)O2)OC2(O[C@](C)([C@H]3CC[C@@](C)([C@@H]4O[C@@H]([C@H]5O[C@@](O)(COC(=O)C(C)C)[C@H](C)C[C@@H]5C)C[C@@H]4C)O3)C[C@H]2C)[C@@H]1C` (stereo partly specified), the MTD in assay [1] is 1.4 µg/mL. The MIC in assay [2] was 0.39 µg/mL (≈ 0.491 µM); in assay [3], 0.19 µg/mL (≈ 0.239 µM); in [4], 0.049 µg/mL (≈ 0.0616 µM); in assay [5], 0.39 µg/mL (≈ 0.491 µM); in assay [6] it was less than 0.02 µg/mL; in assay [7], 0.049 µg/mL (≈ 0.0616 µM). Further, the MIC in [8] was less than 0.02 µg/mL.
Molecule `CO[C@@H]1C[C@@H](C[C@H]2CC[C@H](C)[C@H]([C@@H](C)CO)O2)OC2(O[C@](C)([C@H]3CC[C@@](C)([C@@H]4O[C@@H]([C@H]5O[C@@](O)(CO)[C@H](C)C[C@@H]5C)C[C@@H]4C)O3)C[C@H]2C)[C@@H]1C` (stereo partly specified) came in with an MTD in assay [1] of 14.8 µg/mL. Moreover, the MIC in assay [2] is 6.25 µg/mL (≈ 8.79 µM); in [3] it was 3.13 µg/mL (≈ 4.4 µM); in [4], 1.56 µg/mL (≈ 2.19 µM); in assay [5] it was greater than 100 µg/mL; in assay [6] it was less than 0.18 µg/mL; in assay [7] it was 1.56 µg/mL (≈ 2.19 µM). This molecule registered an MIC in [8] of less than 0.18 µg/mL.
`CO[C@@H]1C[C@@H](C[C@H]2CC[C@H](C)[C@H]([C@@H](C)C(=O)OCOCC[Si](C)(C)C)O2)OC2(O[C@](C)([C@H]3CC[C@@](C)([C@@H]4O[C@@H]([C@H]5O[C@](COCOCC[Si](C)(C)C)(OCOCC[Si](C)(C)C)[C@H](C)C[C@@H]5C)C[C@@H]4C)O3)C[C@H]2C)[C@@H]1C` (stereo partly specified) registered an MTD in assay [9] greater than 40 µg/mL. The MIC in [2] was greater than 100 µg/mL; in [3] it was greater than 100 µg/mL; in assay [4], greater than 100 µg/mL; in [5] it was greater than 100 µg/mL; in assay [6], 4.44 µg/mL (≈ 3.98 µM); in [7], greater than 100 µg/mL. This molecule also showed an MIC in [8] of 13.3 µg/mL (≈ 11.9 µM).
In turn, `CO[C@@H]1C[C@@H](C[C@H]2CC[C@H](C)[C@H]([C@@H](C)C(=O)O)O2)OC2(O[C@](C)([C@H]3CC[C@@](C)([C@@H]4O[C@@H]([C@H]5OC(=O)[C@H](C)C[C@@H]5C)C[C@@H]4C)O3)C[C@H]2C)[C@@H]1C` (stereo partly specified) registered an MTD in assay [1] of 40 µg/mL. Moreover, the MIC in assay [2] came to 50 µg/mL (≈ 72.2 µM); in assay [3], 50 µg/mL (≈ 72.2 µM); in [4] it was 25 µg/mL (≈ 36.1 µM); in [5], 50 µg/mL (≈ 72.2 µM); in assay [6], 4.44 µg/mL (≈ 6.41 µM); in assay [7], 25 µg/mL (≈ 36.1 µM). In [8], this molecule came in with an MIC of 13.3 µg/mL (≈ 19.2 µM).
The molecule `CO[C@@H]1C[C@@H](C[C@H]2CC[C@H](C)[C@H]([C@@H](C)CO)O2)OC2(O[C@](C)([C@H]3CC[C@@](C)([C@@H]4O[C@@H]([C@H]5O[C@](CO)(OC)[C@H](C)C[C@@H]5C)C[C@@H]4C)O3)C[C@H]2C)[C@@H]1C` (stereo partly specified) displayed an MTD in assay [1] of 14.5 µg/mL. Also, the MIC in assay [2] is greater than 100 µg/mL; in [3], greater than 100 µg/mL; in assay [4], greater than 100 µg/mL; in assay [5] it was greater than 100 µg/mL; in assay [6], 4.94 µg/mL (≈ 6.81 µM); in assay [7], greater than 100 µg/mL. Also, the MIC in assay [8] was found to be 0.5 µg/mL (≈ 0.69 µM).
In the case of `CO[C@@H]1C[C@@H](C[C@H]2CC[C@H](C)[C@H]([C@@H](C)CO)O2)OC2(O[C@](C)([C@H]3CC[C@@](C)([C@@H]4O[C@@H]([C@H]5O[C@@](O)(COC(=O)C(C)C)[C@H](C)C[C@@H]5C)C[C@@H]4C)O3)C[C@H]2C)[C@@H]1C` (stereo partly specified), the MIC stood at 6.25 µg/mL (≈ 8 µM) in assay [2]; 3.13 µg/mL (≈ 4.01 µM) in [3]; 12.5 µg/mL (≈ 16 µM) in [4]; 12.5 µg/mL (≈ 16 µM) in [5]; 0.49 µg/mL (≈ 0.627 µM) in assay [6]; 3.13 µg/mL (≈ 4.01 µM) in [7]. The molecule also registered an MIC in [8] of 0.49 µg/mL (≈ 0.627 µM).
In assay [1], `CO[C@@H]1C[C@@H](C[C@H]2CC[C@H](C)[C@H]([C@@H](C)CO)O2)OC2(O[C@](C)([C@H]3CC[C@@](C)([C@@H]4O[C@@H]([C@@H](O)[C@@H](C)C[C@@H](C)CO)C[C@@H]4C)O3)C[C@H]2C)[C@@H]1C` (stereo partly specified) came in with an MTD of 40 µg/mL. In addition, the MIC in [2] was determined as 3.13 µg/mL (≈ 4.58 µM); in assay [3] it was 1.56 µg/mL (≈ 2.28 µM); in assay [4], 50 µg/mL (≈ 73.2 µM); in assay [5] it was 6.25 µg/mL (≈ 9.15 µM); in [6] it was 40 µg/mL (≈ 58.6 µM); in assay [7], 1.56 µg/mL (≈ 2.28 µM). Also, in assay [8], the MIC stood at 133 µg/mL (≈ 195 µM).
As to `CO[C@@H]1C[C@@H](C[C@H]2CC[C@H](C)[C@H]([C@@H](C)CCl)O2)OC2(O[C@](C)([C@H]3CC[C@@](C)([C@@H]4O[C@@H]([C@H]5O[C@@](O)(CCl)[C@H](C)C[C@@H]5C)C[C@@H]4C)O3)C[C@H]2C)[C@@H]1C` (stereo partly specified), the MTD in assay [9] was found to be 14.8 µg/mL. For the same molecule, the MIC in [2] amounted to 0.39 µg/mL (≈ 0.521 µM); in assay [3], 0.098 µg/mL (≈ 0.131 µM); in [4], 0.78 µg/mL (≈ 1.04 µM); in [5], 0.39 µg/mL (≈ 0.521 µM); in assay [6], 0.02 µg/mL (≈ 0.0267 µM); in assay [7], 0.098 µg/mL (≈ 0.131 µM). Also, in assay [8], the MIC was less than 0.02 µg/mL.
In turn, `CO[C@@H]1C[C@@H](C[C@H]2CC[C@H](C)[C@H]([C@@H](C)CO)O2)OC2(O[C@](C)([C@H]3CC[C@@](C)([C@@H]4O[C@@H]([C@H]5O[C@](COCOCC[Si](C)(C)C)(OCOCC[Si](C)(C)C)[C@H](C)C[C@@H]5C)C[C@@H]4C)O3)C[C@H]2C)[C@@H]1C` (stereo partly specified) gave an MTD in assay [9] greater than 400 µg/mL. Further, the MIC in [2] was greater than 100 µg/mL; in [3] it was greater than 100 µg/mL; in assay [4], 50 µg/mL (≈ 51.5 µM); in assay [5], greater than 100 µg/mL; in assay [6], greater than 400 µg/mL; in assay [7], 50 µg/mL (≈ 51.5 µM). For the same molecule, the MIC in assay [8] is greater than 400 µg/mL.
Consider `CO[C@@H]1C[C@@H](C[C@H]2CC[C@H](C)[C@H]([C@@H](C)C(=O)O)O2)OC2(O[C@](C)([C@H]3CC[C@@](C)([C@@H]4O[C@@H]([C@H]5O[C@](CO)(OC)[C@H](C)C[C@@H]5C)C[C@@H]4C)O3)C[C@H]2C)[C@@H]1C` (stereo partly specified), for which, in assay [1], the MTD turned out to be 4.4 µg/mL. Further, the MIC amounted to 1.56 µg/mL (≈ 2.11 µM) in assay [2]; 1.56 µg/mL (≈ 2.11 µM) in assay [3]; 0.39 µg/mL (≈ 0.528 µM) in assay [4]; 1.56 µg/mL (≈ 2.11 µM) in assay [5]; 0.02 µg/mL (≈ 0.0271 µM) in [6]; 0.39 µg/mL (≈ 0.528 µM) in assay [7]. Besides, the MIC in assay [8] came out at 0.5 µg/mL (≈ 0.677 µM).

The record behind these values is ChEMBL document CHEMBL1126264, “Secondary metabolites by chemical screening. 17. Nigericinol derivatives: synthesis, biological activities, and modeling studies” (1992).
